From ChEMBL document CHEMBL1201862, “PubChem BioAssay data set” (2004)
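Values below derive from 48-hour exposures of cells grown in 96-well plates, with endpoints linearly interpolated between the two concentrations bracketing the appropriate inhibition level. The concentration for 50% growth inhibition is given as GI50.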 Activity calls are given as the source filed them. Cut-off read from the data, not from the text of the source: active = GI50 up to about 1.1 µM and inactive = higher.

Columns and labels:
Assay in all cases: NCI tumour cell line growth inhibition, 48 h
[1] = system: A498
[2] = system: ACHN
[3] = system: CCRF-CEM
[4] = system: HOP-92
[5] = system: HT-29
[6] = system: KM12
[7] = system: M14
[8] = system: MCF7
[9] = system: MDA-N
[10] = system: NCI-H23
[11] = system: NCI-H522
[12] = system: SF-268
[13] = system: SK-MEL-5
[14] = system: SW-620
[15] = system: T47D
[16] = system: U-251
[17] = system: UO-31
[18] = system: A549
[19] = system: Malme-3M
[20] = system: SN12C

SMILES | GI50 [1] | GI50 [2] | GI50 [3] | GI50 [4] | GI50 [5] | GI50 [6] | GI50 [7] | GI50 [8] | GI50 [9] | GI50 [10] | GI50 [11] | GI50 [12] | GI50 [13] | GI50 [14] | GI50 [15] | GI50 [16] | GI50 [17] | GI50 [18] | GI50 [19] | GI50 [20]
CC1=CC(=O)CC(C)(C)C1/C=C/C(C)=C/C=C/C(C)=C/C=C/C=C(C)/C=C/C=C(C)/C=C/C1C(C)=CC(=O)CC1(C)C (stereo unspecified) | > 100 µM (inactive) | 30 µM (inactive) | 21.6 µM (inactive) | 23.3 µM (inactive) | 35.7 µM (inactive) | 37.2 µM (inactive) | 40.4 µM (inactive) | 29.2 µM (inactive) | 35.1 µM (inactive) | 36.3 µM (inactive) | 20.8 µM (inactive) | 44.4 µM (inactive) | 45.8 µM (inactive) | 23.2 µM (inactive) | > 100 µM (inactive) | 38.7 µM (inactive) | 67.5 µM (inactive) | – | – | –
Cn1c(=O)c2nc(CSCc3ccccc3)[nH]c2n(C)c1=O | > 100 µM (inactive) | > 100 µM (inactive) | – | > 100 µM (inactive) | 71.4 µM (inactive) | > 100 µM (inactive) | > 100 µM (inactive) | > 100 µM (inactive) | > 100 µM (inactive) | > 100 µM (inactive) | 35.6 µM (inactive) | > 100 µM (inactive) | 71.6 µM (inactive) | – | > 100 µM (inactive) | > 100 µM (inactive) | 41.1 µM (inactive) | 45.6 µM (inactive) | > 100 µM (inactive) | 80.5 µM (inactive)
O=C1C(O)=C(Cl)C(=O)c2c(O)ccc(O)c21 | > 100 µM (inactive) | – | > 100 µM (inactive) | > 100 µM (inactive) | > 100 µM (inactive) | > 100 µM (inactive) | > 100 µM (inactive) | > 100 µM (inactive) | > 100 µM (inactive) | > 100 µM (inactive) | – | > 100 µM (inactive) | > 100 µM (inactive) | > 100 µM (inactive) | > 100 µM (inactive) | > 100 µM (inactive) | > 100 µM (inactive) | > 100 µM (inactive) | 20.1 µM (inactive) | –
COC(=O)c1c([N+](=O)[O-])ncn1[C@H]1OC[C@@H](OC(C)=O)[C@@H](OC(C)=O)[C@@H]1OC(C)=O | > 100 µM (inactive) | > 100 µM (inactive) | > 100 µM (inactive) | > 100 µM (inactive) | > 100 µM (inactive) | > 100 µM (inactive) | > 100 µM (inactive) | > 100 µM (inactive) | > 100 µM (inactive) | > 100 µM (inactive) | > 100 µM (inactive) | > 100 µM (inactive) | – | > 100 µM (inactive) | > 100 µM (inactive) | > 100 µM (inactive) | > 100 µM (inactive) | > 100 µM (inactive) | > 100 µM (inactive) | > 100 µM (inactive)
C=C(C)C1(Sc2ccc(OC)cc2)CC1 | 29.3 µM (inactive) | 33.6 µM (inactive) | 17.5 µM (inactive) | – | 22.3 µM (inactive) | 25 µM (inactive) | 35.1 µM (inactive) | 32.3 µM (inactive) | 15.6 µM (inactive) | 31.2 µM (inactive) | – | 15.8 µM (inactive) | 14.6 µM (inactive) | 17.4 µM (inactive) | 31.9 µM (inactive) | 29 µM (inactive) | 12.2 µM (inactive) | 30.8 µM (inactive) | 17.8 µM (inactive) | 17.5 µM (inactive)
CC1=C(C(=O)NNC(=O)c2ccccc2O)CC(C(=O)NNC(=O)c2ccccc2O)=C(C)N1 | 1.79 µM (inactive) | 0.424 µM (active) | 4.7 µM (inactive) | – | 7.93 µM (inactive) | 0.384 µM (active) | 2.22 µM (inactive) | 0.612 µM (active) | 0.336 µM (active) | 2.1 µM (inactive) | 2.72 µM (inactive) | 0.22 µM (active) | 2.06 µM (inactive) | 5.55 µM (inactive) | 0.498 µM (active) | 0.459 µM (active) | 0.277 µM (active) | 0.48 µM (active) | > 100 µM (inactive) | 5.83 µM (inactive)
COc1ccc(C2(O)c3ccccc3C(=O)N(C)C2(O)c2ccc(OC)cc2)cc1 (stereo unspecified) | 73.1 µM (inactive) | – | 51.8 µM (inactive) | 36.3 µM (inactive) | 28.5 µM (inactive) | 16.4 µM (inactive) | 53.3 µM (inactive) | 54.5 µM (inactive) | 17.7 µM (inactive) | > 100 µM (inactive) | 16.1 µM (inactive) | 28.7 µM (inactive) | 99.1 µM (inactive) | 34.2 µM (inactive) | 52.4 µM (inactive) | 52.7 µM (inactive) | 50.7 µM (inactive) | 57.8 µM (inactive) | 45.9 µM (inactive) | > 100 µM (inactive)
CC(=O)O[C@H]1C(=O)[C@@]2(C)[C@H]([C@H](OC(=O)c3ccccc3)[C@]3(O)C[C@H](OC(=O)[C@H](O)[C@@H](NC(=O)c4ccccc4)c4cccc(N(C)C)c4)C(C)=C1C3(C)C)[C@]1(OC(C)=O)CO[C@@H]1C[C@@H]2O | 0.579 µM (active) | 0.7 µM (active) | 0.0215 µM (active) | 0.555 µM (active) | 0.0219 µM (active) | 0.0198 µM (active) | 0.098 µM (active) | 0.0164 µM (active) | 0.00766 µM (active) | 0.0755 µM (active) | 0.0533 µM (active) | 0.337 µM (active) | 0.0417 µM (active) | 0.0409 µM (active) | 0.401 µM (active) | 0.0608 µM (active) | 1.96 µM (inactive) | 0.314 µM (active) | – | 0.041 µM (active)
